According to US8053458B2, “Dipyrazole compounds and their use as central nervous system agents” (Aventis Pharmaceuticals Inc., priority 2005, dated 2011):
Marks after values point to notes of the source that are not given here.

How the values were obtained:
[1] = tested on: AMPA receptors; assay: Voltage whole-cell recording: inhibition of KA-induced rundown of AMPA current in acutely dissociated prefrontal cortical neurons; type: cell-based, rats; conditions: KA 200 μM; rat PFC neurons; whole-cell voltage clamp, held at −60 mV; 0.1 μM was the lowest concentration tested
Description: (§1) Prefrontal cortical (PFC) neurons from young adult (3-5 weeks postnatal) rats are acutely dissociated using procedures similar to those described previously (Feng, et al., J Neurosci, 2001; Chen, et al., Proc Natl Acad Sci USA, 2004). After incubation of brain slices in a NaHCO3-buffered saline, PFC is dissected and placed in an oxygenated chamber containing papain (Sigma, 0.8 mg/ml) in HEPES-buffered Hank's balanced salt solution (HBSS, Sigma) at room temperature. After 40 minutes of enzyme digestion, tissue is rinsed three times in the low Ca^+2, HEPES-buffered saline and mechanically dissociated with a graded series of fire-polished Pasteur pipettes. The cell suspension is then plated into a 35 mm Lux Petri dish, which is then placed on the stage of a Nikon inverted microscope.
(§2) Whole-cell recordings of whole-cell ion channel currents employ standard voltage clamp techniques (Yan et al., Nat Neuroscience, 1999; Wang et al., J Neurosci, 2003; Tyszkiewicz et al., J. Physiol., 2004). The internal solution (inside the patch pipette) consists of (in mM): 180 N-methyl-d-glucamine (NMG), 40 HEPES, 4 MgCl2, 0.1 BAPTA, 12 phosphocreatine, 3 Na2ATP, 0.5 Na2GTP, 0.1 leupeptin, pH=7.2-7.3, 265-270 mosm/L. The external solution consists of (in mM): 127 NaCl, 20 CsCl, 10 HEPES, 1 CaCl2, 5 BaCl2, 12 glucose, 0.001 TTX, 0.02 glycine, pH=7.3-7.4, 300-305 mOsm/L. Recordings are obtained with an Axon Instruments 200B patch clamp amplifier that is controlled and monitored with an IBM PC running pCLAMP (v. 8) with a DigiData 1320 series interface (Axon instruments). Electrode resistances are typically 2-4 MΩ in the bath. After seal rupture to attain whole-cell recording conditions, series resistance (4-10 MΩ) is compensated (70-90%) and periodically monitored. The cell membrane potential is held at −60 mV.
(§3) The application of KA (200 μM) or NMDA (100 μM, in Mg^2+-free solution) evokes a partially desensitizing inward current. KA or NMDA is applied for 2 seconds every 30 seconds to minimize desensitization-induced decrease of current amplitude. Drugs are applied with a gravity-fed ‘sewer pipe’ system. The array of application capillaries (ca. 150 μm i.d.) is positioned a few hundred microns from the cell under study. Solution changes are effected by the SF-77B fast-step solution stimulus delivery device (Warner Instruments). Data are collected with PCLAMP software and analyzed with AXOGRAPH, KALEIDOGRAPH, and STATVIEW.
(§4) Compounds described herein inhibit the KA-induced rundown of AMPA current by either stabilizing the agonist-evoked current of increasing the current. Likewise, compounds described herein increase the NMDA-evoked current. The minimum effective dose (MED) was identified by determining the lowest concentration of inhibitor that was effective in each functional assay.

[2] = tested on: NMDA receptors; assay: Voltage whole-cell recording: increase of NMDA-evoked current in acutely dissociated prefrontal cortical neurons; type: cell-based, rats; conditions: rat PFC neurons; for Increase of NMDA-Evoked Current, Minimal Effective Concentration: NMDA 100 μM in Mg2+-free solution, whole-cell voltage clamp; for Average percent increase in NMDA current (10 μM): compound at 10 μM, NMDA 100 μM
Description: as §1, §2, §3, §4

## Cc1cc(-c2c(C)nn(-c3ccccc3F)c2O)[nH]n1 [Example 4, 2′-(2-Fluoro-phenyl)-5,5′-dimethyl-2H,2′H-[3,4′]bipyrazolyl-3′-ol]
[1]
  Inhibition of KA-Induced Rundown of AMPA Current, Minimal Effective Concentration: 0.1 * μM

## Cc1cc(-c2c(C)nn(-c3ccc(Cl)cc3)c2O)[nH]n1 [Example 5, 2′-(4-Chloro-phenyl)-5,5′-dimethyl-2H,2′H-[3,4′]bipyrazolyl-3′-ol]
[1]
  Inhibition of KA-Induced Rundown of AMPA Current, Minimal Effective Concentration: 0.1 * μM

## Cc1cc(-c2c(C)nn(-c3ccc(C(F)(F)F)cc3)c2O)[nH]n1 [Example 8, 5,5′-Dimethyl-2′-(4-trifluoromethyl-phenyl)-2H,2′H-[3,4′]bipyrazolyl-3′-ol]
[2]
  Increase of NMDA-Evoked Current, Minimal Effective Concentration: 1 µM
  Average percent increase in NMDA current (10 μM): 303%

## Cc1cccc(-n2nc(C)c(-c3cc(C)n[nH]3)c2O)c1 [Example 15, 5,5′-Dimethyl-2′-(3-methyl-phenyl)-2H,2′H-[3,4′]bipyrazolyl-3′-ol]
[1]
  Inhibition of KA-Induced Rundown of AMPA Current, Minimal Effective Concentration: 1.0 µM

## Cc1cc(-c2c(C)nn(-c3cccc(Cl)c3)c2O)[nH]n1 [Example 18, 5,5′-Dimethyl-2′-(3-chlorophenyl)-2H,2′H-[3,4′]bipyrazolyl-3′-ol]
[2]
  Increase of NMDA-Evoked Current, Minimal Effective Concentration: 5 µM
  Average percent increase in NMDA current (10 μM): 55%
[1]
  Inhibition of KA-Induced Rundown of AMPA Current, Minimal Effective Concentration: 1.0 µM

## Cc1cc(-c2c(C)nn(-c3ccccc3)c2O)[nH]n1 [Example 25, 5,5′-Dimethyl-2′-phenyl-2H,2′H-[3,4′]bipyrazolyl-3′-ol]
[1]
  Inhibition of KA-Induced Rundown of AMPA Current, Minimal Effective Concentration: 1.0 µM
